The values below come from US20260092071A1, “COMPOUNDS AND COMPOSITIONS AS SMARCA2/4 DEGRADERS AND USES THEREOF” (REGENTS OF THE UNIVERSITY OF MICHIGAN, priority 2022, published 2026).

The target of experiment [1] is SMARCA4 (Homo sapiens, UniProt P51532). Put plainly: HiBit assay in engineered HT1080 CRISPR knock-in cell, 6 hrs (B series), SMARCA4. Type of experiment: cell-based. As to conditions: 6 hrs incubation; for DC50: HT1080 CRISPR knock-in cells, read-out: SMARC A4 HT1080 HiBit DC50; for Dmax: HT-1080, HT1080 CRISPR knock-in cells, read-out: SMARC A4 HT1080 HiBit Dmax(%). As to the method: (§1) The HiBit assay was performed using engineered HT1080 CRISPR knock-in cell utilizing the Nano-Glo HiBiT Lytic Detection System from Promega, Cat #N3040. Compounds were transferred, 25 nL DMSO or test compounds (final DMSO @ 0.1%) to intermediate plates (Corning3570) using ECHO550. Cells were seeded onto compounds at 2000 cells/25 μL/well and incubated for 6 hrs in a tissue culture incubator at 37° C. and 5% CO2. The LgBiT Protein was diluted at 1:100 and the Nano-Glo® HiBIT Lytic Substrate 1:50 into an appropriate volume of room temperature using the Nano-Glo® HiBiT Lytic Buffer. At the end of compound incubation time, 15 ul of the detection reagent was added to each well (without LgBiT for negative control wells) using the Thermo Scientific multidrop combi. The plate was shaken for 10 mins at RT using Combi. After briefly centrifugation (2000 rpm 1 mins), plate was read on Envision (Ultrasensitive luminescence model).
Sequence of SMARCA4 (P51532 whole entry): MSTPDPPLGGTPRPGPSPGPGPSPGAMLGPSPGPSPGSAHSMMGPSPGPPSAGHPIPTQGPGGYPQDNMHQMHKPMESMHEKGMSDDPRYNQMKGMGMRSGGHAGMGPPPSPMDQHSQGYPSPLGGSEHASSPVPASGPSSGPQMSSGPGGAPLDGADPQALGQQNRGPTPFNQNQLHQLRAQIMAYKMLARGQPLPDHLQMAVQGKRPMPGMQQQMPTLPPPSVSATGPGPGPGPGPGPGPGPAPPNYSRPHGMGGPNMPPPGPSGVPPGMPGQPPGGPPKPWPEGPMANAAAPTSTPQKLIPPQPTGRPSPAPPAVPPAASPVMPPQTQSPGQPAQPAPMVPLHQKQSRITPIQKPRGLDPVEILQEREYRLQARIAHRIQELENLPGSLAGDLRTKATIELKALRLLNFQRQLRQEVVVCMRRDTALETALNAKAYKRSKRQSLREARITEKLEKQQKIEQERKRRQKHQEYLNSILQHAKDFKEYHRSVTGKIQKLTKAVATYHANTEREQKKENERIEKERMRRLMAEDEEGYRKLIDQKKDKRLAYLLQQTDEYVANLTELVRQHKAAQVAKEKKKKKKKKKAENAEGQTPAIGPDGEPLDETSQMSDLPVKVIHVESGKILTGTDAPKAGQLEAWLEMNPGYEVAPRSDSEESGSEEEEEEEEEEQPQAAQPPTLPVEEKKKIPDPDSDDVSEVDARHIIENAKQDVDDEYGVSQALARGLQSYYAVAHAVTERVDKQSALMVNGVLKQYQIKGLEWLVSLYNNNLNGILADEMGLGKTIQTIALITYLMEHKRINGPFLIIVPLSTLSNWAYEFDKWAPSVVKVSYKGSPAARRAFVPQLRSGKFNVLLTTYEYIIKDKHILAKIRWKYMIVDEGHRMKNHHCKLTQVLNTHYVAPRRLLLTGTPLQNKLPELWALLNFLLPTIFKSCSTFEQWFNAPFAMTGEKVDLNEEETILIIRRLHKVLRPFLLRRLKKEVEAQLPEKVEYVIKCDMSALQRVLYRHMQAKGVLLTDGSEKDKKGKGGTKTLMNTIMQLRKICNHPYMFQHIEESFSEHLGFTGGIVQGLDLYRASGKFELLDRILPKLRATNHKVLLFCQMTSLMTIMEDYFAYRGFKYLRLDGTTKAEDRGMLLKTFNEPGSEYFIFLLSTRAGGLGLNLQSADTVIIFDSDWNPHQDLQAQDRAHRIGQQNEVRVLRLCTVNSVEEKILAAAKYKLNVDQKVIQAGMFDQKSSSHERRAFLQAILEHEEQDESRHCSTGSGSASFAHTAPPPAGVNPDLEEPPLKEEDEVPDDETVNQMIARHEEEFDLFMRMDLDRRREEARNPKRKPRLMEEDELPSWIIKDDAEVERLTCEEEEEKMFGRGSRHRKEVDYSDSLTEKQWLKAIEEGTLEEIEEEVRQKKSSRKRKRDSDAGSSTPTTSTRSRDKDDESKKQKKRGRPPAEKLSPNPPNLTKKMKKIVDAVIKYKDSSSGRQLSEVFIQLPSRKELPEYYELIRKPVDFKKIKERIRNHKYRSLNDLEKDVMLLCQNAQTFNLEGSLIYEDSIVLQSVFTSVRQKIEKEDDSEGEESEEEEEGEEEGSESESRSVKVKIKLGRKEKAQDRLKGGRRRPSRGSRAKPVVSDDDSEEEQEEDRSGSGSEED
Background: With HiBiT, luminescence reflects the tagged protein that the partner subunit can reach.

Experiment [2] deals with SMARCA2 (Homo sapiens, UniProt P51531). The experiment can be described thus: HiBit assay in engineered HT1080 CRISPR knock-in cell, 6 hrs (B series), SMARCA2. As to conditions: 6 hrs incubation; for DC50: HT1080 CRISPR knock-in cells, read-out: SMARC A2 HT1080 HiBit DC50; for Dmax: HT-1080, HT1080 CRISPR knock-in cells, read-out: SMARC A2 HT1080 HiBit Dmax (%). It is filed as cell-based. As to the method:
as §1

SMILES strings stand for the structures. Where only a bound is given, the exact number is not on record here.

Sequence of SMARCA2 (P51531 whole entry): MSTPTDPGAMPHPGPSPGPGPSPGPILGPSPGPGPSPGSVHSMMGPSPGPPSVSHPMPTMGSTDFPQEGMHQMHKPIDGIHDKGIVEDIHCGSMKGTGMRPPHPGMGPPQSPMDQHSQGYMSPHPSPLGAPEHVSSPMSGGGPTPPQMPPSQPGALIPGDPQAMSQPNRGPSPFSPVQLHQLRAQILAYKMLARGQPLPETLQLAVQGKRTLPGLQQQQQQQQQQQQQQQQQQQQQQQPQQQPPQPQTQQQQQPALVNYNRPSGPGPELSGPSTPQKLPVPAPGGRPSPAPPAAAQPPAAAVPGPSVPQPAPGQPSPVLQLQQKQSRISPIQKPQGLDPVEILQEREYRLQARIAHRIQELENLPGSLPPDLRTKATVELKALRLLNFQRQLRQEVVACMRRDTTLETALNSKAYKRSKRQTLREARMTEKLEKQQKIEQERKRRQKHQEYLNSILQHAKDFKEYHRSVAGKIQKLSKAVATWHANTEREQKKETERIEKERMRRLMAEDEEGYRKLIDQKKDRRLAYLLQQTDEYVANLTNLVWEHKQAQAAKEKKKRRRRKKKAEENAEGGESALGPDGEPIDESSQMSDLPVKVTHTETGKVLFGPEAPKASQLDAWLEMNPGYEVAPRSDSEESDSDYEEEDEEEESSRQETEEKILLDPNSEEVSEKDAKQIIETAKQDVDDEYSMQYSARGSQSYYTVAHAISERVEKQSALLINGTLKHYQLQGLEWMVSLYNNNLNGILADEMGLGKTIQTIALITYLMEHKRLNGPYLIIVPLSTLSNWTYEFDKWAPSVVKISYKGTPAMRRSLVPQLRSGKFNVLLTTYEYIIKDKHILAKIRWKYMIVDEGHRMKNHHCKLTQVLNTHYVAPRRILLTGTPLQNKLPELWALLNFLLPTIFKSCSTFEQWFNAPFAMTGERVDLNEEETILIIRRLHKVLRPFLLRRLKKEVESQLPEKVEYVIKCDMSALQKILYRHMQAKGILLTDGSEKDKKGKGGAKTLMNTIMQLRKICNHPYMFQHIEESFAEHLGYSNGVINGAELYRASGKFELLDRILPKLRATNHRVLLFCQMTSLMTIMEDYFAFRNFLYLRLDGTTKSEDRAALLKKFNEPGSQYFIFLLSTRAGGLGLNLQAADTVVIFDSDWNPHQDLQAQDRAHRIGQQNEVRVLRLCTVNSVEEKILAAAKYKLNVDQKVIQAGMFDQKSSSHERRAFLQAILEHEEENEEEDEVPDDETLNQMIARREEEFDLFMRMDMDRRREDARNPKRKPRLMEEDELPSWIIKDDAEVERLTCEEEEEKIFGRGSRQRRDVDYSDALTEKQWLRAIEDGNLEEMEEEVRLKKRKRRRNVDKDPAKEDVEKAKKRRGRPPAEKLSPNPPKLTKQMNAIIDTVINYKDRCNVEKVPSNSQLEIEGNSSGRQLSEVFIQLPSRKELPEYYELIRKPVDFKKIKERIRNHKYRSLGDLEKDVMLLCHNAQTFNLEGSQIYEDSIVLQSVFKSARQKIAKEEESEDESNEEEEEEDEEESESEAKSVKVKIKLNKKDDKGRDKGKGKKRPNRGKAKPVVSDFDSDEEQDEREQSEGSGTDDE

Consider `Cc1ncsc1-c1ccc([C@H](C)NC(=O)[C@@H]2C[C@@H](O)CN2C(=O)[C@H](C(C)C)n2cc(C3CCC(CN4CCC(c5ccc6c(c5)C(C)(C)c5nc(=O)c7c(Cl)cccc7n5-6)CC4)CC3)nn2)cc1` (stereo partly drawn) [Compound B19, (2S,4R)-1-((S)-2-(4-(4-((4-(4-chloro-7,7-dimethyl-5-oxo-5,7-dihydroindolo[1,2-a]quinazolin-9-yl)piperidin-1-yl)methyl)cyclohexyl)-1H-1,2,3-triazol-1-yl)-3-methylbutanoyl)-4-hydroxy-N-((S)-1-(4-(4-methylthiazol-5-yl)phenyl)ethyl)pyrrolidine-2-carboxamide], for which, in experiment [1], the DC50 lay in the range of 100 to 500 nM and the Dmax lay within 70 to 90%. In experiment [2], the DC50 is < 100 nM and the Dmax is > 90%.
The corresponding values for `Cc1nc(C)c(-c2ccc([C@H](C)NC(=O)[C@@H]3C[C@@H](O)CN3C(=O)[C@@H](n3cc([C@H]4CC[C@H](CN5CCC(c6ccc7c(c6)-n6c(nc(=O)c8c(Cl)cccc86)C7(C)C)CC5)CC4)nn3)C(C)(C)C)cc2)s1` [Compound B164, (2S,4R)-1-((S)-2-(4-((1r,4S)-4-((4-(4-chloro-7,7-dimethyl-5-oxo-5,7-dihydroindolo[1,2-a]quinazolin-10-yl)piperidin-1-yl)methyl)cyclohexyl)-1H-1,2,3-triazol-1-yl)-3,3-dimethylbutanoyl)-N-((S)-1-(4-(2,4-dimethylthiazol-5-yl)phenyl)ethyl)-4-hydroxypyrrolidine-2-carboxamide] are < 100 nM, 70 to 90%, < 100 nM and > 90%.
For `Cc1ncsc1-c1ccc([C@H](C)NC(=O)[C@@H]2C[C@@H](O)CN2C(=O)[C@@H](NC(=O)[C@H]2CC[C@H](CN3CCC(c4ccc5c(c4)-n4c(nc(=O)c6c(Cl)cccc64)C5(C)C)CC3)CC2)C(C)(C)C)cc1` [Compound B40, (2S,4R)-1-((S)-2-((1r,4S)-4-((4-(4-chloro-7,7-dimethyl-5-oxo-5,7-dihydroindolo[1,2-a]quinazolin-10-yl)piperidin-1-yl)methyl)cyclohexane-1-carboxamido)-3,3-dimethylbutanoyl)-4-hydroxy-N-((S)-1-(4-(4-methylthiazol-5-yl)phenyl)ethyl)pyrrolidine-2-carboxamide], in that order: 100 to 500 nM, < 50%, < 100 nM and > 90%.
For `Cc1ncsc1-c1ccc([C@H](C)NC(=O)[C@@H]2C[C@@H](O)CN2C(=O)[C@@H](c2cc(OCCn3cc(-c4ccc5c(c4)-n4c(nc(=O)c6c(Cl)cccc64)C5(C)C)cn3)no2)C(C)C)cc1` [Compound B60, (2S,4R)-1-(2-(3-(2-(4-(4-chloro-7,7-dimethyl-5-oxo-5,7-dihydroindolo[1,2-a]quinazolin-10-yl)-1H-pyrazol-1-yl)ethoxy)isoxazol-5-yl)-3-methylbutanoyl)-4-hydroxy-N-((S)-1-(4-(4-methylthiazol-5-yl)phenyl)ethyl)pyrrolidine-2-carboxamide], in that order: < 100 nM, < 50%, < 100 nM and < 50%.
With `Cc1ncsc1-c1ccc([C@H](C)NC(=O)[C@@H]2C[C@@H](O)CN2C(=O)[C@@H](NC(=O)CCCCN2CCC(c3ccc4c(c3)-n3c(nc(=O)c5c(Cl)cccc53)C4(C)C)CC2)C(C)(C)C)cc1` [Compound B50, (2S,4R)-1-((S)-2-(5-(4-(4-chloro-7,7-dimethyl-5-oxo-5,7-dihydroindolo[1,2-a]quinazolin-10-yl)piperidin-1-yl)pentanamido)-3,3-dimethylbutanoyl)-4-hydroxy-N-((S)-1-(4-(4-methylthiazol-5-yl)phenyl)ethyl)pyrrolidine-2-carboxamide], the figures for the DC50 in experiment [1] and in experiment [2] were > 1000 nM and 100 to 500 nM, respectively. Moreover, the Dmax in experiment [1] was < 50%; in experiment [2], 70 to 90%.
`Cc1ncsc1-c1ccc([C@H](C)NC(=O)[C@@H]2C[C@@H](O)CN2C(=O)[C@H](C(C)C)n2cc(CN3CCC(c4ccc5c(c4)-n4c(nc(=O)c6c(Cl)cccc64)C5(C)C)CC3)nn2)cc1` [Compound B49, (2S,4R)-1-((S)-2-(4-((4-(4-chloro-7,7-dimethyl-5-oxo-5,7-dihydroindolo[1,2-a]quinazolin-10-yl)piperidin-1-yl)methyl)-1H-1,2,3-triazol-1-yl)-3-methylbutanoyl)-4-hydroxy-N-((S)-1-(4-(4-methylthiazol-5-yl)phenyl)ethyl)pyrrolidine-2-carboxamide]: the DC50 in experiment [1] was > 1000 nM; in experiment [2], < 100 nM. The Dmax in experiment [1] is < 50%; in experiment [2] it was 70 to 90%.
Consider `Cc1ncsc1-c1ccc([C@H](C)NC(=O)[C@@H]2C[C@@H](O)CN2C(=O)C(c2cc(CN3CCC(c4ccc5c(c4)C(C)(C)c4nc(=O)c6c(Cl)cccc6n4-5)CC3)no2)C(C)C)cc1` (stereo partly drawn) [Compound B8, (2S,4R)-1-(2-(3-((4-(4-chloro-7,7-dimethyl-5-oxo-5,7-dihydroindolo[1,2-a]quinazolin-9-yl)piperidin-1-yl)methyl)isoxazol-5-yl)-3-methylbutanoyl)-4-hydroxy-N—((S)-1-(4-(4-methylthiazol-5-yl)phenyl)ethyl)pyrrolidine-2-carboxamide], for which, in experiment [1], the DC50 was < 100 nM and the Dmax fell in the range of 70 to 90%. In experiment [2], the DC50 was < 100 nM and the Dmax is > 90%.
On to `Cc1ncsc1-c1ccc([C@H](CCCCCN2CCC(c3ccc4c(c3)-n3c(nc(=O)c5c(Cl)cccc53)C4(C)C)CC2)NC(=O)[C@@H]2C[C@@H](O)CN2C(=O)[C@@H](NC(=O)C2(F)CC2)C(C)(C)C)cc1` [Compound B21, (2S,4R)-N-((S)-6-(4-(4-chloro-7,7-dimethyl-5-oxo-5,7-dihydroindolo[1,2-a]quinazolin-10-yl)piperidin-1-yl)-1-(4-(4-methylthiazol-5-yl)phenyl)hexyl)-1-((S)-2-(1-fluorocyclopropane-1-carboxamido)-3,3-dimethylbutanoyl)-4-hydroxypyrrolidine-2-carboxamide], for which, in experiment [1], the DC50 was < 100 nM and the Dmax is > 90%. In experiment [2], the DC50 is < 100 nM and the Dmax is > 90%.
On to `Cc1ncsc1-c1ccc([C@H](C)NC(=O)[C@@H]2C[C@@H](O)CN2C(=O)[C@@H](c2cc(OCC#Cc3cccc4c3C(C)(C)c3nc(=O)c5c(Cl)cccc5n3-4)no2)C(C)C)cc1` [Compound B130, (2S,4R)-1-((R)-2-(3-((3-(4-chloro-7,7-dimethyl-5-oxo-5,7-dihydroindolo[1,2-a]quinazolin-8-yl)prop-2-yn-1-yl)oxy)isoxazol-5-yl)-3-methylbutanoyl)-4-hydroxy-N-((S)-1-(4-(4-methylthiazol-5-yl)phenyl)ethyl)pyrrolidine-2-carboxamide], for which, in experiment [1], the DC50 lay in the range of 100 to 500 nM and the Dmax lay in the range of 50 to 69%. Besides, in experiment [2], the DC50 is < 100 nM and the Dmax is > 90%.
For `Cc1ncsc1-c1ccc([C@H](C)NC(=O)[C@@H]2C[C@@H](O)CN2C(=O)[C@@H](NC(=O)c2ccc(CN3CCC(c4ccc5c(c4)C(C)(C)c4nc(=O)c6c(Cl)cccc6n4-5)CC3)s2)C(C)(C)C)cc1` [Compound B20, (2S,4R)-1-((S)-2-(5-((4-(4-chloro-7,7-dimethyl-5-oxo-5,7-dihydroindolo[1,2-a]quinazolin-9-yl)piperidin-1-yl)methyl)thiophene-2-carboxamido)-3,3-dimethylbutanoyl)-4-hydroxy-N-((S)-1-(4-(4-methylthiazol-5-yl)phenyl)ethyl)pyrrolidine-2-carboxamide], in that order: < 100 nM, 70 to 90%, < 100 nM and > 90%.
For `Cc1ncsc1-c1ccc([C@H](CC(=O)NCCN2CCC(c3ccc4c(c3)-n3c(nc(=O)c5c(Cl)cccc53)C4(C)C)CC2)NC(=O)[C@@H]2C[C@@H](O)CN2C(=O)[C@@H](NC(=O)C2(F)CC2)C(C)(C)C)cc1` [Compound B44, (2S,4R)-N-((S)-3-((2-(4-(4-chloro-7,7-dimethyl-5-oxo-5,7-dihydroindolo[1,2-a]quinazolin-10-yl)piperidin-1-yl)ethyl)amino)-1-(4-(4-methylthiazol-5-yl)phenyl)-3-oxopropyl)-1-((S)-2-(1-fluorocyclopropane-1-carboxamido)-3,3-dimethylbutanoyl)-4-hydroxypyrrolidine-2-carboxamide], in that order: 100 to 500 nM, < 50%, 100 to 500 nM and < 50%.
As to `Cc1ncsc1-c1ccc([C@H](C)NC(=O)[C@@H]2C[C@@H](O)CN2C(=O)[C@@H](c2cc(OCC3(CN4CCC(c5ccc6c(c5)C(C)(C)c5nc(=O)c7c(Cl)cccc7n5-6)CC4)CC3)no2)C(C)C)cc1` [Compound B82, (2S,4R)-1-((R)-2-(3-((1-((4-(4-chloro-7,7-dimethyl-5-oxo-5,7-dihydroindolo[1,2-a]quinazolin-9-yl)piperidin-1-yl)methyl)cyclopropyl)methoxy)isoxazol-5-yl)-3-methylbutanoyl)-4-hydroxy-N-((S)-1-(4-(4-methylthiazol-5-yl)phenyl)ethyl)pyrrolidine-2-carboxamide], in experiment [1], the DC50 is < 100 nM and the Dmax was in the range of 50 to 69%. Moreover, in experiment [2], the DC50 was < 100 nM and the Dmax was 70 to 90%.
